What was measured:
[1] = target: farnesyl protein transferase (Homo sapiens, UniProt P49356); details: cited from earlier work
[2] = Bioavailability assay: single oral dose, plasma analysed by HPLC-UV, AUC compared with amorphous suspension control; format: in vivo, male cynomolgus monkeys; details: for bioavailability (in words): observed while developing a solid dosage form with conventional excipients
Experimental: The formulation to be tested was administered orally to male cynomolgus monkeys in a single dose (PO, single). The number of monkeys for each test is indicated by the letter “N” followed by an equal sign and a number. Thus, “(N=6)” means the formulation was administered to six monkeys. The total amount of the compound of Formula I administered was 100 or 200 mg given as one capsule or tablet containing 100 or 200 mg each. The administered dose (tablet, capsule or control suspension) was slowly washed down with 10 mL of water. Blood samples were taken at 15, 30 minutes, 1 hour, 2 hours, 4 hours, 6 hours, 8 hours, 12 hours, 24 hours, and 48 hours in heparinized syringes. Plasma for analysis was obtained by centrifugation at 4° C. Plasma samples (one per time point) were split and stored at −20° C. until assayed as described below.
The monkeys to be tested were fed two biscuits in the morning on the day of drug administration.
Monkeys that were fasted were not given any food overnight before drug administration and were fed normally after the 4-hour time point after drug administration.
Samples of monkey plasma were collected at selected time intervals. The plasma was analyzed by a high pressure liquid chromatograph (HPLC) procedure with ultraviolet detection. AUC (area under the plasma concentration-time curve, […]) values were calculated using standard procedures to determine the relative bioavailability of the compound in the tested formulations. The larger the AUC value, the greater the bioavailability.
A suspension of the compound of Formula I was used as a control. The control was made by suspending sufficient compound of Formula I in methyl cellulose solution to provide a dose of 30 mg/kg of body weight of monkey. The 0.4% methyl cellulose solution was made by adding 4 grams of methyl cellulose to one liter of distilled water and heating at about 80° C. with stirring for about 1½ hours.
The results of the bioavailability assay are given in terms of percent-relative bioavailability (AUC ratio) compared to amorphous suspension of Compound I in 0.4 methyl cellulose solution.

abnormal growth of cells = details: cited from earlier work
[3] = fed monkeys, suspension of crystalline form vs suspension of amorphous form
[4] = suspension of crystalline form vs suspension of amorphous form, feeding state not printed in the sentence (fasted implied by b145)

relative bioavailability, % of the AUC of the amorphous suspension [2, 3]: 3.6% | relative bioavailability, % of the C max of the amorphous suspension [2, 3]: 5.2% | bioavailability (in words) ([2]; listed as compound of Formula I): extremely poor | bioavailability (in words) ([2]; listed as crystalline Compound I): very poor | relative bioavailability, % of the AUC of the amorphous suspension [2, 4]: 1.3% | relative bioavailability, % of the Cmax of the amorphous suspension [2, 4]: 2.7%
SMILES: NC(=O)N1CCC(CC(=O)N2CCC(C3c4ncc(Br)cc4CCc4cc(Cl)cc(Br)c43)CC2)CC1 (single isomer, unassigned; (+)) [Compound I, (+)-4-[4-(8-chloro-3,10-dibromo-6,11-dihydro-5H-benzo [5,6cyclohepta[1,2-b]pyridin-11-yl)-1-piperidinyl]-2-oxoethyl]-1-piperidinecarboxamide]
activity for inhibiting farnesyl protein transferase (in words) [1]: potent activity | activity for inhibiting the abnormal growth of cells (in words) (abnormal growth of cells): potent activity

Reference: US6632455B2, “Molecular dispersion composition with enhanced bioavailability” (Schering Corporation, priority 1997, dated 2003)
